Entries after “also recorded” stand apart in the source; their conditions may differ.
What was measured:
LTD4 receptor [1] = conditions: cited from earlier work
[2] = Renal function in vivo in anesthetized rats (AP, Hct, RPF, GFR) during intrarenal arterial infusion; set-up: species or system male Munich-Wistar rats; conditions: for Mean percent fall in RPF / Mean percent fall in GFR: without LXA4
Text: (§1) Statistical: ANOVA with Bonferroni modification for multiple pre-planned comparisons was used, within each group and between groups, to compare the changes in various whole kidney and microcirculatory indices which occurred from one period to another. In phosphoinositide generation studies, increases in [^3 H]-IP3 CPMs in agonist-treated cells were compared to vehicle-treated controls using upaired students t-test. Differences were considered significant at a p value ≤0.05. All values are reported as means ± SEM.
Inulin and para-aminohippurate (PAH) clearances Were used to measure GFR and effective RPF. A needle was placed at the take-off of the left renal artery through which a maintenance infusion of 0.9% NaCl at a rate of 0.05 ml/min was initiated. […] Two experimental groups
Group I (n=14). First period: Clearances were performed during vehicle infusion.
Group II (n=12). First period: Clearances were performed during vehicle infusion.

renal arterioles = conditions: rat, in vivo; cited from earlier work
mesangial cells = conditions: cited from earlier work
HL-60 myeloid cells = conditions: DMSO-differentiated HL-60 cells; cited from earlier work
[3] = intra-renal arterial LTD4 1 μg/kg/min; cited from earlier work
rat mesangial cells = test: IP3 formation ([3H]-inositol labeled mesangial cells) in response to LTD4 or LXA4; assay type: cell-based; conditions: Mesangial cell, read-out: increase in [3H]-IP3 counts over controls
Text: as §1
The isolated glomeruli were harvested from the surface of the 75 μm filter and washed twisce with the Hank's Media. […] Mesangial cell colonies were subcultured in 60 mm culture dishes, and experiments were carried out in cells from passages 2 to 12.
(§2) To label mesangial cells with [^3 H]-Inositol, cells grown to confluence in 60 mm culture dishes (10^6 cells/dish) were cultured in RPMI, supplemented with 10% dialyzed fetal calf serum and [^3 H]-inositol (1 μCi/ml) in a total incubation volume of 5 ml.
Reactions were terminated by the addition of cold 10% trichloroacetic acid (TCA), the supernatants subjected to ether extraction, and the aqueous phase titrated to neutral pH using 0.1 M Tris base. […] To ensure the reliability of the separation technique, the same methods for extraction and separation were applied to known amounts of [^3 H]-IP1, [^3 H]IP2, and [^3 H]-IP3 standards (New England Nuclear) mixed in a ratio of 3:2:1, respectively, and subjected to separation by HPLC.

[4] = biological target: T1, mesangial cell LTD4 receptor (Rattus norvegicus, UniProt Q924T8); conditions: even at a 1000-fold excess concentration
T1 sequence (Q924T8 1-339): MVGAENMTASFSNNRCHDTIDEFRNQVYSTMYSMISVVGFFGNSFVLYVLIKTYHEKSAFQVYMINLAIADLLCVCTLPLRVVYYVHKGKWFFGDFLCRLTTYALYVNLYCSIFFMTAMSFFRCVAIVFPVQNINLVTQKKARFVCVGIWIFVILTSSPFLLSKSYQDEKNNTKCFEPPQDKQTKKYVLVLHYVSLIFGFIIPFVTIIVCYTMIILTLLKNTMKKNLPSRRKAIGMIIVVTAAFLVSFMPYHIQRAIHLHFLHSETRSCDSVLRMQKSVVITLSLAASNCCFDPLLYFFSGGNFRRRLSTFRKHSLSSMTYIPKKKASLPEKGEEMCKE
Experimental: Mesangial Cell Culture: Rat mesangial cells were isolated and cultured as described previously (Harris, R. C., et al., J. Clin. Invest. 82:1028-1039(1988). Briefly, kidneys were exicesed from two young Sprague-Dawly rats under sterile conditions, and the cortices removed, minced, and washed several times in Hank's Balanced Salt Solution, containing 10 mM HEPES pH 7.4, amphotericin (0.25 μg/ml), and gentamicin (50 μg/ml). The tissue was then passed through consecutive sterilized stainless mesh filters with pore sizes of 212 μm, 150 μm, and then onto the final mesh of 75 μm. The isolated glomeruli were harvested from the surface of the 75 μm. The isolated glomeruli were harvested from the surface of the 75 μm filter and washed twisce with the Hank's Media. The glomeruli were suspended in RPMI 1640 Medium with 15% Fetal Bovine Serum (Givco), penicillin (100 μ/ml) and streptomycin (100 μg/ml) (Gibco), plated into 100 mm cell culture petri dishes, and incubated at 37° C. in a humidified atmosphere of 95% air and 5% air and 5% CO2. Mesangial cell colonies were subcultured in 60 mm culture dishes, and experiments were carried out in cells from passages 2 to 12. […] Cells were routinely grown in RPMI-1640, supplemented with 20% fetal calf serum, penicillin 100 μ/ml, and streptomycin 100 μg/ml.
Binding studies were routinely performed at 4° C. […] The cells were then dissolved with 1.0 ml of 1.0 N NaOH, neutralized with HCl, dissolved in 10 ml of Aquasol (New England Nuclear, Boston, MA), and the bound radioactivity was determined using a scintillation counter (Beckman Instruments). […] Cell density was determined by counting cells from replicate wells, using a Coulter Counter ZBi (Coulter Electronics, Inc., Hialeah, Fla.).

LTD4 receptor [5] = test: Inhibition of LXA4-induced IP3 formation in mesangial cells; assay type: cell-based, rat
Experimental: Mesangial Cell Culture: Rat mesangial cells were isolated and cultured as described previously (Harris, R. C., et al., J. Clin. Invest. 82:1028-1039(1988). Briefly, kidneys were exicesed from two young Sprague-Dawly rats under sterile conditions, and the cortices removed, minced, and washed several times in Hank's Balanced Salt Solution, containing 10 mM HEPES pH 7.4, amphotericin (0.25 μg/ml), and gentamicin (50 μg/ml). The tissue was then passed through consecutive sterilized stainless mesh filters with pore sizes of 212 μm, 150 μm, and then onto the final mesh of 75 μm. The isolated glomeruli were harvested from the surface of the 75 μm. […] All eicosanoids were stored under argon at -70° C. in methanol and their purity and quantity verified periodically by ultraviolet scanning and high pressure liquid chromatography (Serhan, C. N. et al., J. Biol. Chem. 261:16340 (1986)). […]
Reactions were terminated by the addition of cold 10% trichloroacetic acid (TCA), the supernatants subjected to ether extraction, and the aqueous phase titrated to neutral pH using 0.1 M Tris base. [^3 H]-IP1, [^3 H]-IP2, and [^3 H]-IP3 in the aqueous phase were separated and quantitated by anion exchange column chromatography, using the method of Berridge et al. (Berridge, M. J., Biochem. J. 220:345-360 (1984)). […]

LTD4 receptor [6] = test: Inhibition of LTD4-induced IP3 formation in mesangial cells; assay type: cell-based, rat
Experimental: Mesangial Cell Culture: Rat mesangial cells were isolated and cultured as described previously (Harris, R. C., et al., J. Clin. Invest. 82:1028-1039(1988). Briefly, kidneys were exicesed from two young Sprague-Dawly rats under sterile conditions, and the cortices removed, minced, and washed several times in Hank's Balanced Salt Solution, containing 10 mM HEPES pH 7.4, amphotericin (0.25 μg/ml), and gentamicin (50 μg/ml). The tissue was then passed through consecutive sterilized stainless mesh filters with pore sizes of 212 μm, 150 μm, and then onto the final mesh of 75 μm. The isolated glomeruli were harvested from the surface of the 75 μm. The isolated glomeruli were harvested from the surface of the 75 μm filter and washed twisce with the Hank's Media. The glomeruli were suspended in RPMI 1640 Medium with 15% Fetal Bovine Serum (Givco), penicillin (100 μ/ml) and streptomycin (100 μg/ml) (Gibco), plated into 100 mm cell culture petri dishes, and incubated at 37° C. in a humidified atmosphere of 95% air and […] 5% CO2. Mesangial cell colonies were subcultured in 60 mm culture dishes, and experiments were carried out in cells from passages 2 to 12. The criteria used to establish the identify of mesangial cells were as described previously (Harris, R. C., et al., J. Clin. Invest. 82:1028-1039 (1988)). Cells were routinely grown in RPMI-1640, supplemented with 20% fetal calf serum, penicillin 100 μ/ml, and streptomycin 100 μg/ml. […] All eicosanoids were stored under argon at -70° C. in methanol and their purity and quantity verified periodically by ultraviolet scanning and high pressure liquid chromatography (Serhan, C. N. et al., J. Biol. Chem. 261:16340 (1986)).
as §2
Reactions were terminated by the addition of cold 10% trichloroacetic acid (TCA), the supernatants subjected to ether extraction, and the aqueous phase titrated to neutral pH using 0.1 M Tris base. [^3 H]-IP1, [^3 H]-IP2, and [^3 H]-IP3 in the aqueous phase were separated and quantitated by anion exchange column chromatography, using the method of Berridge et al. (Berridge, M. J., Biochem. J. 220:345-360 (1984)). To ensure the reliability of the separation technique, the same methods for extraction and separation were applied to known amounts of [^3 H]-IP1, [^3 H]IP2, and [^3 H]-IP3 standards (New England Nuclear) mixed in a ratio of 3:2:1, respectively, and subjected to separation by HPLC. The latter was performed using established methodology described previously (Cunha-Melo, J. R., et al., J. Biol. Chem. 262:11455-11463 (1987)).

LTD4/ LTE4 receptors = conditions: in vivo and in vitro; cited from earlier work
[7] = biological target: T1, mesangial cell LTD4 receptor; set-up: endogenous in cells; host or cells: primary glomerular mesangial cells of young Sprague-Dawley rats, passages 2 to 12; conditions: other studies of the inventors; cited from earlier work
[8] = Group I, period 2, A: LTD4 0.5 μg/kg/min, n=4
[9] = Group I, period 2, B: LTD4 7 μg/kg/min, n=3
[10] = Group I, period 2, C: LTD4 14 μg/kg/min, n=3
[11] = Group I, period 2, D: LTD4 20 μg/kg/min, n=4
[12] = LTD4 7.0 μg/kg/min, p<0.05 vs baseline
[13] = LTD4 14.0 μg/kg/min, p<0.05 vs baseline
[14] = LTD4 20.0 μg/kg/min, p<0.05 vs baseline
[15] = 100-fold concentrations of SKF 104353

In the case of `CCCc1c(OCC(O)COc2ccc3c(=O)cc(C(=O)O)oc3c2CCC)ccc(C(C)=O)c1O` (stereo not drawn) [FPL-55712], the Duration of action (LTD4 receptor [1]) is listed as “short-acting”.
In the case of `CCCCC/C=C\C\C=C/C=C/C=C/[C@@H](SC[C@H](N)C(=O)NCC(=O)O)[C@@H](O)CCCC(=O)O` [LTD4, reference compound], the “GFR and RPF change (in words)” value ([2]; Group I, LTD4 0.5-20.0 μg/kg/min) is reported as “dose-dependent reductions”, the AP [2, 8] is reported as 127 ± 9 mmHg and the GFR [2, 8] is reported as 0.81 ± 0.11 mL/min. For the same molecule, the Hct [2, 8] was 48.3 ± 1.2 Vol./dl, the RPF [2, 8] was 3.41 ± 0.50 mL/min and the AP [2, 9] was 124 ± 6 mmHg. For the same molecule, the GFR [2, 9] was 0.84 ± 0.15 mL/min, the Hct [2, 9] was 53.0 ± 1.5 Vol./dl and the RPF [2, 9] was 2.76 ± 0.59 mL/min. For the same molecule, the AP [2, 10] was 148 ± 5 mmHg, the GFR [2, 10] was 0.32 ± 0.10 mL/min and the Hct [2, 10] was 59.2 ± 2.2 Vol./dl. It also gave an RPF [2, 10] of 1.51 ± 0.44 mL/min, an AP [2, 11] of 128 ± 4 mmHg and a GFR [2, 11] of 0.34 ± 0.80 mL/min. For the same molecule, the Hct [2, 11] was 55.0 ± 1.8 Vol./dl, the RPF [2, 11] was 1.20 ± 0.15 mL/min and the “Mean percent fall in RPF” value ([2]; LTD4 0.5 μg/kg/min) was 24%. The “Mean percent fall in GFR” value ([2]; LTD4 0.5 μg/kg/min, p<0.05 vs baseline) was 27%, the “Mean percent fall in GFR” value [2, 12] was 25% and the “Mean percent fall in RPF” value [2, 12] was 40%. For the same molecule, the “Mean percent fall in GFR” value [2, 13] was 70%, the “Mean percent fall in RPF” value [2, 13] was 65% and the “Mean percent fall in GFR” value [2, 14] was 73%. The “Mean percent fall in RPF” value [2, 14] was 70%, the “Kf and GFR in vivo” value (renal arterioles) was “markedly reduces” and the “Contraction of mesangial cells in culture” value (mesangial cells) was “contracts mesangial cells in culture”. The “Intracellular Ca2+ concentrations” value (HL-60 myeloid cells) was “increase intracellular Ca^2+ concentrations”, the Systemic hemodynamic alterations [3] was “elevation in systemic arterial pressure and a progressive loss of plasma volume” and the activation at 0.01 µM (rat mesangial cells) was 146 ± 20%. It also gave an activation at 0.05 µM (rat mesangial cells) of 106 ± 13%.
For `CCCCC[C@H](O)/C=C/C=C\C=C\C=C\[C@H](O)[C@@H](O)CCCC(=O)O` [6S-LXA4, 5S,6S,15S,trihydroxy-7,9,13-trans-11-cis-eicosatetraenoic acid, reference compound], the “Competition for [3H]-LTD4 at excess concentration” value [4] was “filed to compete for [^3 H]-LTD4”.
In the case of `O=C(O)CCS[C@H](c1ccccc1CCCCCCCCc1ccccc1)[C@@H](O)C(=O)O` [SKF 104353], the “Inhibition of IP3 formation in response to LXA4 (FIG. 2)” value (LTD4 receptor [5]; [15]) is reported as “complete abolition”, the “Inhibition of LXA4-induced IP3 formation” value (LTD4 receptor [5]; SKF 104353 100 nM (n=3)) is reported as “abrogated; also recorded: total abrogation” and the “Inhibition of IP3 formation in response to LTD4 (FIG. 2)” value (LTD4 receptor [6]; [15]) is reported as “complete abolition”. For the same molecule, the “Inhibition of LTD4-induced stimulation of [3H]-IP3 formation” value (LTD4 receptor [6]; 100-fold excess over ligand, LTD4 10 and 50 nM (n=3 each)) was “total abrogation”, the Agonist activity (LTD4/ LTE4 receptors) was “devoid of agonist activity” and the “Inhibition of [3H]-LTD4 binding to its mesangial cell binding site” value [7] was “inhibit [^3 H]-LTD4 binding”.

From patent US5079261A, “Use of lipoxin A4 and its derivatives as antagonists for slow-reacting substances of anaphylaxis” (Brigham and Women's Hospital, priority 1989, dated 1992)
